# Laboratory results as given in ChEMBL document CHEMBL1201862, “PubChem BioAssay data set” (2004).
# “And” between values parts separate entries of the source, which are not always exact repeats. Equal entries are not always repeated.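 48-hour exposure; five concentrations; linearly interpolated endpoints. GI50 = concentration required for 50% inhibition of growth.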 The source made the active and inactive calls. No stated cut-off is given here; in the data, active = GI50 up to about 1.1 µM and inactive = higher.
# Assays:
# Assay in all cases: DTP human tumour cell line panel, 48 h
# [1] = system: HOP-62
# [2] = system: NCI-H460
# [3] = system: M14
# [4] = system: SF-295
# [5] = system: HCT-15
# [6] = system: OVCAR-8
# [7] = system: MOLT-4
# [8] = system: T47D
# [9] = system: CAKI-1
# [10] = system: K562
# [11] = system: DU-145
# [12] = system: MDA-MB-435
# [13] = system: MCF7
# [14] = system: SNB-19
# [15] = system: OVCAR-5
# [16] = system: BT-549
# [17] = system: SW-620
# [18] = system: COLO 205
# [19] = system: CCRF-CEM
# [20] = system: MDA-MB-231
SMILES,GI50 [1],GI50 [2],GI50 [3],GI50 [4],GI50 [5],GI50 [6],GI50 [7],GI50 [8],GI50 [9],GI50 [10],GI50 [11],GI50 [12],GI50 [13],GI50 [14],GI50 [15],GI50 [16],GI50 [17],GI50 [18],GI50 [19],GI50 [20]
Cc1ccc(-c2c(-c3ccccc3)[nH]c(C)c2C(=O)ONC(=O)c2ccccc2)cc1,1.99 µM (inactive),2.17 µM (inactive),5.19 µM (inactive),1.93 µM (inactive),9.25 µM,4.62 µM (inactive),2.74 µM (inactive),4.6 µM (inactive),2.19 µM (inactive),2.55 µM (inactive),1.82 µM (inactive),2.19 µM (inactive),4.84 µM (inactive),6.38 µM (inactive),8.65 µM (inactive),3.52 µM (inactive),8.51 µM (inactive),11.7 µM (inactive),2.97 µM (inactive),3.4 µM (inactive)
C#CCCCOc1ncccn1,> 100 µM (inactive),–,> 100 µM (inactive),> 100 µM (inactive),–,> 100 µM (inactive),> 100 µM (inactive),> 100 µM (inactive),> 100 µM (inactive),> 100 µM (inactive),> 100 µM (inactive),> 100 µM (inactive),> 100 µM (inactive),> 100 µM (inactive),> 100 µM (inactive),> 100 µM (inactive),> 100 µM (inactive),> 100 µM (inactive),> 10 µM (inactive),> 100 µM (inactive)
CC(=O)Nc1cc(CN2CCCCC2)c(O)c2ncccc12,27.2 µM (inactive),11.7 µM (inactive),15.4 µM (inactive),25.4 µM (inactive),6.01 µM,29.6 µM (inactive),10.1 µM (inactive),11.8 µM (inactive),16.6 µM (inactive),21.3 µM (inactive),6.75 µM (inactive),31.4 µM (inactive),24.7 µM (inactive),39.7 µM (inactive),34.8 µM (inactive),77.4 µM (inactive),39.7 µM (inactive),49.7 µM (inactive),41.5 µM (inactive),15.8 µM (inactive)
O=C1N/C(=N/N=C\C(O)C(O)C(O)C(O)CO)N/C1=C/c1ccc(Cl)cc1 (stereo not given),> 100 µM (inactive),> 100 µM (inactive),> 100 µM (inactive),> 100 µM (inactive),76 µM and 50.6 µM,> 100 µM (inactive),46 µM (inactive) and > 10 µM (inactive),49.7 µM (inactive) and 36.6 µM (inactive),> 100 µM (inactive),55.6 µM (inactive) and 27.7 µM (inactive),> 100 µM (inactive),> 100 µM (inactive),> 100 µM (inactive),> 100 µM (inactive),> 100 µM (inactive),> 100 µM (inactive),> 100 µM (inactive),> 100 µM (inactive),40.4 µM (inactive),> 100 µM (inactive)
CCCCCCc1cc2cc(-c3cn4c(n3)sc3ccccc34)c(=O)oc2cc1O,73.1 µM (inactive),> 100 µM (inactive),4.94 µM (inactive),> 100 µM (inactive),> 75.7 µM,5.82 µM (inactive),> 100 µM (inactive),> 100 µM (inactive),> 100 µM (inactive),> 100 µM (inactive),> 100 µM (inactive),3.46 µM (inactive),> 100 µM (inactive),> 100 µM (inactive),> 100 µM (inactive),> 100 µM (inactive),> 78.7 µM (inactive),> 100 µM (inactive),> 100 µM (inactive),> 100 µM (inactive)
C[C@]12CCC(=O)C=C1C[C@@H](O)[C@@H]1[C@@H]2CC[C@@]2(C)[C@H]1CC[C@]2(C)O,> 100 µM (inactive),> 100 µM (inactive),> 100 µM (inactive),> 100 µM (inactive),> 100 µM,> 100 µM (inactive),–,> 100 µM (inactive),> 100 µM (inactive),> 100 µM (inactive),> 100 µM (inactive),> 100 µM (inactive),> 100 µM (inactive),> 100 µM (inactive),> 100 µM (inactive),> 100 µM (inactive),> 100 µM (inactive),> 100 µM (inactive),> 100 µM (inactive),> 100 µM (inactive)
COc1ccc2cc(C(=O)NCCCNC(=O)c3ccc4cc(OC)ccc4c3)ccc2c1,14.7 µM (inactive),> 64.9 µM (inactive),> 100 µM (inactive),22.4 µM (inactive),> 100 µM,22.6 µM (inactive),> 100 µM (inactive),> 75.7 µM (inactive),> 82.4 µM (inactive),> 100 µM (inactive),> 100 µM (inactive),> 100 µM (inactive),> 100 µM (inactive),17.2 µM (inactive),> 100 µM (inactive),> 64.7 µM (inactive),> 100 µM (inactive),> 100 µM (inactive),> 100 µM (inactive),21.1 µM (inactive)
C[Si](C)(c1ccc(C(=O)O)cc1)c1ccc(C(=O)O)cc1,> 100 µM (inactive),> 100 µM (inactive),> 100 µM (inactive),> 100 µM (inactive),> 100 µM,> 100 µM (inactive),> 100 µM (inactive),> 100 µM (inactive),> 100 µM (inactive),> 100 µM (inactive),> 100 µM (inactive),> 100 µM (inactive),> 100 µM (inactive),> 100 µM (inactive),> 100 µM (inactive),> 100 µM (inactive),> 100 µM (inactive),> 100 µM (inactive),> 100 µM (inactive),> 100 µM (inactive)
OCC(S)CS.[Bi] (stereo not given),19.1 µM (inactive),13.4 µM (inactive),8.36 µM (inactive),48.2 µM (inactive),15 µM,19.5 µM (inactive),–,8.89 µM (inactive),11.8 µM (inactive),5.68 µM (inactive),18.3 µM (inactive),15.2 µM (inactive),18.5 µM (inactive),13.7 µM (inactive),19.9 µM (inactive),9.79 µM (inactive),16 µM (inactive),14.5 µM (inactive),1.25 µM (inactive),24.4 µM (inactive)
O=C1CCCCC/C1=C\c1cccc([N+](=O)[O-])c1,38.9 µM (inactive),30.1 µM (inactive),26.5 µM (inactive),23.2 µM (inactive),–,33 µM (inactive),15.5 µM (inactive),36 µM (inactive),36.1 µM (inactive),31.9 µM (inactive),48.2 µM (inactive),32.7 µM (inactive),48.3 µM (inactive),38.6 µM (inactive),46.2 µM (inactive),24.5 µM (inactive),34.5 µM (inactive),51.1 µM (inactive),12.2 µM (inactive),23.8 µM (inactive)
CCOC(=O)CC1C(O)C(=O)N(C)C1c1ccccc1 (stereo not given),> 100 µM (inactive),–,> 100 µM (inactive),> 100 µM (inactive),> 100 µM,> 100 µM (inactive),> 100 µM (inactive),> 100 µM (inactive),> 100 µM (inactive),> 100 µM (inactive),> 100 µM (inactive),> 100 µM (inactive),> 100 µM (inactive),> 100 µM (inactive),> 100 µM (inactive),> 100 µM (inactive),> 100 µM (inactive),> 100 µM (inactive),> 100 µM (inactive),> 100 µM (inactive)
O=c1c2ccccc2nc2n1C(c1ccc([N+](=O)[O-])cc1)C2(c1ccccc1)c1ccccc1 (stereo not given),> 100 µM (inactive),> 100 µM (inactive),> 100 µM (inactive),> 100 µM (inactive),> 100 µM,> 100 µM (inactive),5.46 µM (inactive),> 100 µM (inactive),> 100 µM (inactive),–,> 100 µM (inactive),> 100 µM (inactive),54.6 µM (inactive),14.5 µM (inactive),> 100 µM (inactive),> 100 µM (inactive),> 100 µM (inactive),8.3 µM (inactive),8.45 µM (inactive),> 100 µM (inactive)
CC(=O)Oc1ccc2c(c1)O/C(=C\c1ccc(N(C)C)cc1)C2=O,> 100 µM (inactive),70.1 µM (inactive),> 100 µM (inactive),–,67 µM,> 100 µM (inactive),47.1 µM (inactive),> 100 µM (inactive),> 100 µM (inactive),27.9 µM (inactive),> 100 µM (inactive),35.3 µM (inactive),> 100 µM (inactive),53.8 µM (inactive),–,68.4 µM (inactive),52.2 µM (inactive),> 100 µM (inactive),82.4 µM (inactive),68.5 µM (inactive)
O=C(O)c1cccc2cccc(-c3cccc4cccc(C(=O)O)c34)c12,> 100 µM (inactive),> 100 µM (inactive),> 100 µM (inactive),> 100 µM (inactive),> 100 µM,> 100 µM (inactive),–,> 100 µM (inactive),> 100 µM (inactive),> 100 µM (inactive),> 100 µM (inactive),> 100 µM (inactive),> 100 µM (inactive),> 100 µM (inactive),> 100 µM (inactive),> 100 µM (inactive),> 100 µM (inactive),> 100 µM (inactive),> 100 µM (inactive),> 100 µM (inactive)
